The structures appear in SMILES notation. Starred links: 1 amine or outer side, 2 acyl side, 3 side chain; linkers in the order of their positions; H or OH if unused. Non-standard residues stand in square brackets, D forms with d. Residues, ends and D or L forms follow the SMILES beside them. dPro(4R-(4-pyridylmethyl)) = O=C(O)[C@H]1C[C@@H](Cc2ccncc2)CN1; X17 = CN(C)C(=O)c1ccc(-c2ccc(C[C@H](N[*:1])C(=O)[*:2])cc2)cc1; Trp(βS-Me,4-F) = C[C@@H](c1c[nH]c2cccc(F)c12)[C@H](N)C(=O)O; Bip(4'-CONH2) = NC(=O)c1ccc(-c2ccc(C[C@H](N)C(=O)O)cc2)cc1; Bip(4'-COOH) = N[C@@H](Cc1ccc(-c2ccc(C(=O)O)cc2)cc1)C(=O)O; Ala(1-bicyclo(1.1.1)pentyl) = N[C@@H](CC12CC(C1)C2)C(=O)O; dPro(4R-Bzl(4-F)) = O=C(O)[C@H]1C[C@@H](Cc2ccc(F)cc2)CN1; Bip(4'-Cl) = N[C@@H](Cc1ccc(-c2ccc(Cl)cc2)cc1)C(=O)O; Ala(pyrimidin-5-yl) = N[C@@H](Cc1cncnc1)C(=O)O; Phe(4-COOH) = N[C@@H](Cc1ccc(C(=O)O)cc1)C(=O)O; Bip = N[C@@H](Cc1ccc(-c2ccccc2)cc1)C(=O)O; Pro(cis-4-F) = O=C(O)[C@@H]1C[C@H](F)CN1; X6 = O=C([C@H](Cc1ccncn1)N[*:1])[*:2]; d(αMeD) = C[C@@](N)(CC(=O)O)C(=O)O; 4Pal = N[C@@H](Cc1ccncc1)C(=O)O; aThr = C[C@H](O)[C@H](N)C(=O)O; d(αMeS) = C[C@@](N)(CO)C(=O)O; Dab = NCC[C@H](N)C(=O)O; Aib = CC(C)(N)C(=O)O; Sar = CNCC(=O)O

T1 sequence (P01584 117-269): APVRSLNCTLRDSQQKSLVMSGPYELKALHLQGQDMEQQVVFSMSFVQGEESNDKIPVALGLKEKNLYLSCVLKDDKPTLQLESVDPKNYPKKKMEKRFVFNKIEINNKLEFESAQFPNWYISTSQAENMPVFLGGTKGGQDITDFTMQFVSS

The test concerns the target T1, IL-1β (Homo sapiens, UniProt P01584).
T1 construct: purchased BioLegend 579404
Put plainly: IL-6 assay in MRC5 cells: inhibition of IL-1β induced IL-6 secretion (AlphaLISA). The test is classed as cell-based. As to conditions: inhibition of IL-1β induced IL-6 secretion in MRC5 cells; read-out: MRC5 IC50. In a few lines: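 Compound was pre-incubated 1 h at ambient temperature with recombinant human IL-1β at 2λ EC80 before adding human lung fibroblast MRC5 cells (3000/well) in EMEM with 0.025% BSA. After overnight culture at 37 °C, 5% CO2, secreted IL-6 in conditioned medium was measured by AlphaLISA; IC50 from 4-parameter logistic fits.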
Take `C[C@H](O)[C@@H]1NC(=O)[C@@](C)(CC(=O)O)NC(=O)[C@H](Cc2c[nH]c3ccccc23)NC(=O)[C@H](CO)NC(=O)C(C)(C)NC(=O)[C@H]([C@@H](C)c2c[nH]c3cccc(F)c23)NC(=O)[C@@H]2C[C@H](F)CN2C(=O)CNC(=O)[C@H](Cc2ccc(C(=O)O)cc2)NC(=O)[C@H](Cc2ccncc2)NC(=O)[C@H](Cc2ccc(-c3ccc(C(=O)O)cc3)cc2)NC(=O)[C@H]2C[C@@H](Cc3ccncc3)CN2C(=O)CN(C)C(=O)[C@H](CCN)NC(=O)[C@H](CCC(N)=O)NC1=O` [Example 337] (cyclo([Bip(4'-COOH)][4Pal][Phe(4-COOH)]G[Pro(cis-4-F)][Trp(βS-Me,4-F)][Aib]SW[d(αMeD)][aThr]Q[Dab][Sar][dPro(4R-(4-pyridylmethyl))])): the 50% inhibitory concentration (IC50) turned out to be 0.022 nM.
Turning to `C[C@@H](c1c[nH]c2cccc(F)c12)[C@@H]1NC(=O)[C@@H]2C[C@H](F)CN2C(=O)CNC(=O)[C@H](Cc2ccc(C(=O)O)cc2)NC(=O)[C@H](Cc2ccncc2)NC(=O)[C@H](Cc2ccc(-c3ccc(C(=O)N(C)C)cc3)cc2)NC(=O)[C@H]2C[C@@H](Cc3ccncc3)CN2C(=O)CNC(=O)[C@H](CCN)NC(=O)[C@H](CCC(N)=O)NC(=O)[C@H](Cc2cncnc2)NC(=O)[C@@](C)(CO)NC(=O)[C@H](Cc2c[nH]c3ccccc23)NC(=O)[C@H](CO)NC(=O)C(C)(C)NC1=O` [Example 338] (cyclo([X17][4Pal][Phe(4-COOH)]G[Pro(cis-4-F)][Trp(βS-Me,4-F)][Aib]SW[d(αMeS)][Ala(pyrimidin-5-yl)]Q[Dab]G[dPro(4R-(4-pyridylmethyl))])), the half-inhibitory concentration (IC50) stood at 0.018 nM.
Next, `C[C@@H](c1c[nH]c2cccc(F)c12)[C@@H]1NC(=O)[C@@H]2C[C@H](F)CN2C(=O)CNC(=O)[C@H](Cc2ccc(C(=O)O)cc2)NC(=O)[C@H](Cc2ccncc2)NC(=O)[C@H](Cc2ccc(-c3ccc(C(N)=O)cc3)cc2)NC(=O)[C@H]2C[C@@H](Cc3ccncc3)CN2C(=O)CNC(=O)[C@H](CCN)NC(=O)[C@H](CCC(N)=O)NC(=O)[C@H](Cc2cncnc2)NC(=O)[C@@](C)(CO)NC(=O)[C@H](Cc2c[nH]c3ccccc23)NC(=O)[C@H](CO)NC(=O)C(C)(C)NC1=O` [Example 339] (cyclo([Bip(4'-CONH2)][4Pal][Phe(4-COOH)]G[Pro(cis-4-F)][Trp(βS-Me,4-F)][Aib]SW[d(αMeS)][Ala(pyrimidin-5-yl)]Q[Dab]G[dPro(4R-(4-pyridylmethyl))])): 0.024 nM; `C[C@@H](c1c[nH]c2cccc(F)c12)[C@@H]1NC(=O)[C@@H]2C[C@H](F)CN2C(=O)CNC(=O)[C@H](Cc2ccc(C(=O)O)cc2)NC(=O)[C@H](Cc2ccncc2)NC(=O)[C@H](Cc2ccc(-c3ccccc3)cc2)NC(=O)[C@H]2C[C@@H](Cc3ccncc3)CN2C(=O)CNC(=O)[C@H](CCN)NC(=O)[C@H](CCC(N)=O)NC(=O)[C@H](Cc2cncnc2)NC(=O)[C@@](C)(CO)NC(=O)[C@H](Cc2c[nH]c3ccccc23)NC(=O)[C@H](CO)NC(=O)C(C)(C)NC1=O` [Example 340] (cyclo([Bip][4Pal][Phe(4-COOH)]G[Pro(cis-4-F)][Trp(βS-Me,4-F)][Aib]SW[d(αMeS)][Ala(pyrimidin-5-yl)]Q[Dab]G[dPro(4R-(4-pyridylmethyl))])): 0.021 nM; `C[C@@H](c1c[nH]c2cccc(F)c12)[C@@H]1NC(=O)[C@@H]2C[C@H](F)CN2C(=O)CNC(=O)[C@H](Cc2ccc(C(=O)O)cc2)NC(=O)[C@H](CC23CC(C2)C3)NC(=O)[C@H](Cc2ccc(-c3ccc(C(=O)N(C)C)cc3)cc2)NC(=O)[C@H]2C[C@@H](Cc3ccncc3)CN2C(=O)CNC(=O)[C@H](CCN)NC(=O)[C@H](CCC(N)=O)NC(=O)[C@H](Cc2cncnc2)NC(=O)[C@@](C)(CC(=O)O)NC(=O)[C@H](Cc2c[nH]c3ccccc23)NC(=O)[C@H](CO)NC(=O)C(C)(C)NC1=O` [Example 341] (cyclo([X17][Ala(1-bicyclo(1.1.1)pentyl)][Phe(4-COOH)]G[Pro(cis-4-F)][Trp(βS-Me,4-F)][Aib]SW[d(αMeD)][Ala(pyrimidin-5-yl)]Q[Dab]G[dPro(4R-(4-pyridylmethyl))])): 0.024 nM.
Next, `C[C@@H](c1c[nH]c2cccc(F)c12)[C@@H]1NC(=O)[C@@H]2C[C@H](F)CN2C(=O)CNC(=O)[C@H](Cc2ccc(C(=O)O)cc2)NC(=O)[C@H](CC23CC(C2)C3)NC(=O)[C@H](Cc2ccc(-c3ccc(C(N)=O)cc3)cc2)NC(=O)[C@H]2C[C@@H](Cc3ccncc3)CN2C(=O)CNC(=O)[C@H](CCN)NC(=O)[C@H](CCC(N)=O)NC(=O)[C@H](Cc2cncnc2)NC(=O)[C@@](C)(CC(=O)O)NC(=O)[C@H](Cc2c[nH]c3ccccc23)NC(=O)[C@H](CO)NC(=O)C(C)(C)NC1=O` [Example 342] (cyclo([Bip(4'-CONH2)][Ala(1-bicyclo(1.1.1)pentyl)][Phe(4-COOH)]G[Pro(cis-4-F)][Trp(βS-Me,4-F)][Aib]SW[d(αMeD)][Ala(pyrimidin-5-yl)]Q[Dab]G[dPro(4R-(4-pyridylmethyl))])): 0.022 nM; `C[C@@H](c1c[nH]c2cccc(F)c12)[C@@H]1NC(=O)[C@@H]2C[C@H](F)CN2C(=O)CNC(=O)[C@H](Cc2ccc(C(=O)O)cc2)NC(=O)[C@H](CC23CC(C2)C3)NC(=O)[C@H](Cc2ccc(-c3ccccc3)cc2)NC(=O)[C@H]2C[C@@H](Cc3ccncc3)CN2C(=O)CNC(=O)[C@H](CCN)NC(=O)[C@H](CCC(N)=O)NC(=O)[C@H](Cc2cncnc2)NC(=O)[C@@](C)(CC(=O)O)NC(=O)[C@H](Cc2c[nH]c3ccccc23)NC(=O)[C@H](CO)NC(=O)C(C)(C)NC1=O` [Example 343] (cyclo([Bip][Ala(1-bicyclo(1.1.1)pentyl)][Phe(4-COOH)]G[Pro(cis-4-F)][Trp(βS-Me,4-F)][Aib]SW[d(αMeD)][Ala(pyrimidin-5-yl)]Q[Dab]G[dPro(4R-(4-pyridylmethyl))])): 0.026 nM.
On to `C[C@@H](c1c[nH]c2cccc(F)c12)[C@@H]1NC(=O)[C@@H]2C[C@H](F)CN2C(=O)CNC(=O)[C@H](Cc2ccc(C(=O)O)cc2)NC(=O)[C@H](Cc2ccncc2)NC(=O)[C@H](Cc2ccc(-c3ccc(Cl)cc3)cc2)NC(=O)[C@H]2C[C@@H](Cc3ccncc3)CN2C(=O)CNC(=O)[C@H](CCN)NC(=O)[C@H](CCC(N)=O)NC(=O)[C@H](Cc2cncnc2)NC(=O)[C@@](C)(CC(=O)O)NC(=O)[C@H](Cc2c[nH]c3ccccc23)NC(=O)[C@H](CO)NC(=O)C(C)(C)NC1=O` [Example 344] (cyclo([Bip(4'-Cl)][4Pal][Phe(4-COOH)]G[Pro(cis-4-F)][Trp(βS-Me,4-F)][Aib]SW[d(αMeD)][Ala(pyrimidin-5-yl)]Q[Dab]G[dPro(4R-(4-pyridylmethyl))])), for which the IC50 came out at 0.022 nM.
As to `C[C@@H](c1c[nH]c2cccc(F)c12)[C@@H]1NC(=O)[C@@H]2C[C@H](F)CN2C(=O)CNC(=O)[C@H](Cc2ccc(C(=O)O)cc2)NC(=O)[C@H](Cc2ccncc2)NC(=O)[C@H](Cc2ccc(-c3ccc(C(=O)O)cc3)cc2)NC(=O)[C@H]2C[C@@H](Cc3ccc(F)cc3)CN2C(=O)CNC(=O)[C@H](CCN)NC(=O)[C@H](CCC(N)=O)NC(=O)[C@H](Cc2ccncn2)NC(=O)C(C)(C)NC(=O)[C@H](Cc2c[nH]c3ccccc23)NC(=O)[C@H](CCC(=O)O)NC(=O)C(C)(C)NC1=O` [Example 345] (cyclo([Bip(4'-COOH)][4Pal][Phe(4-COOH)]G[Pro(cis-4-F)][Trp(βS-Me,4-F)][Aib]EW[Aib][X6]Q[Dab]G[dPro(4R-Bzl(4-F))])), the IC50 is 0.012 nM.

For orientation: IC50 means the concentration that gives 50% inhibition.

These data come from patent US20260242419A1, “A CYCLIC PEPTIDE FOR TRAPPING INTERLEUKIN-1 BETA” (Merck Sharp & Dohme LLC, priority 2023, published 2026).
